The values below come from patent publication US6096771A, “Isoxazole derivatives” (Sankyo Company, Limited, priority 1994, dated 2000).

Counter-ions that a name gives are not always drawn.

System in one assay: not given
Experiment: not given
The settings on record: Farmaco, Ed. Sci., 23, 1081 (1968); 24, 440 (1969); cited from earlier work.
Take `CN(C)CCOc1noc2ccccc12` [Compound B, 3(2-N,NDimethylamino)ethoxy-1,2-benzisoxazole]: the anti-inflammatory effects entry is given as “possesses anti-inflammatory effects”.

System in a further assay: not given
Experiment: not given
The settings on record: Farmaco, Ed. Sci., 23, 1081 (1968); 24, 440 (1969); cited from earlier work. The source holds these as a separate data set.
Turning to `CN(C)CCOc1noc2ccccc12` [Compound B, 3(2-N,NDimethylamino)ethoxy-1,2-benzisoxazole], the “local (infiltration) anaesthetic effect” value is recorded as “local (infiltration) anaesthetic effect”.

A further assay deals with T1, B-type monoamine oxidase (Mus musculus, UniProt Q8BW75).
T1 sequence (Q8BW75 1-520): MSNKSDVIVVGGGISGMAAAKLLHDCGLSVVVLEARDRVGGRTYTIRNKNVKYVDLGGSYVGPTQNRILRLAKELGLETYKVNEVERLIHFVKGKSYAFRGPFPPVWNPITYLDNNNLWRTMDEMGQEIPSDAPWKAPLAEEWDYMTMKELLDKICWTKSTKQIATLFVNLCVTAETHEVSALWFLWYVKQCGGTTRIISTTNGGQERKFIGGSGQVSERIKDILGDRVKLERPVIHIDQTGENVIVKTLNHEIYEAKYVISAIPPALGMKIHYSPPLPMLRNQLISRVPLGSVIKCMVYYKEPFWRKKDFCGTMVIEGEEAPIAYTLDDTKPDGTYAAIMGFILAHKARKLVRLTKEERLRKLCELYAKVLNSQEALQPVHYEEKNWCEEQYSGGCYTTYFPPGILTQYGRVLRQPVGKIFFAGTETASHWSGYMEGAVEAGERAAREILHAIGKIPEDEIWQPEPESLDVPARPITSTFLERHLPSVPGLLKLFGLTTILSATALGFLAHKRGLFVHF
The assay can be described thus: Monoamine oxidase-inhibitory activity, B-type (crude mitochondria of mouse brain, 14C-2-phenylethylamine substrate). It is filed as biochemical. The settings on record: 14C-PEA 20 μM, pH 7.4, 38° C., 20 min preincubation.
As usually defined, the IC50 is the concentration at which inhibition is half-maximal. A high value points to lower potency. For `Cc1c(F)ccc2onc(OCCN)c12` [Example 17, 3-(2-Aminoethoxy)-5-fluoro-4-methyl-1,2-benzisoxazole Hydrochloride], the half-maximal inhibitory concentration (IC50) stood at 4.2 nM. As to `NCCOc1noc2ccccc12` [Example 2, 3-(2-Aminoethoxy)-1,2-benzisoxazole hydrochloride], the midpoint of inhibition, the IC50, lay at 1.85 nM. `NCCSc1noc2ccc(Cl)cc12` [Example 38, 3-(2-Aminoethylthio)-5-chloro-1,2-benzisoxazole hydrochloride] gave a 50% inhibitory concentration (IC50) of 2.95 nM. In the case of `NCCOc1noc2ccc(Br)cc12` [Example 15, 3-(2-Aminoethoxy)-5-bromo-1,2-benzisoxazole Hydrochloride], the IC50 turned out to be 0.32 nM. For the compound `NCCOc1noc2c(Cl)cccc12` [Example 9, 3-(2-Aminoethoxy)-7-chloro-1,2-benzisoxazole Hydrochloride], half-maximal inhibition (IC50) was put at 20 nM.

Take `NCCSc1noc2ccc([N+](=O)[O-])cc12` [Example 35, 3-(2-Aminoethylthio)-5-nitro-1,2-benzisoxazole hydrochloride]: the midpoint of inhibition, the IC50, lay at 9 nM.

Regarding `NCCOc1noc2ccc([N+](=O)[O-])cc12` [Example 8, 3-(2-Aminoethoxy)-5-nitro-1,2-benzisoxazole Hydrochloride], 0.56 nM corresponded to half-maximal inhibition (IC50). On the same count and under the same terms, as for `NCCSc1noc2ccc(F)cc12` [Example 26, 3-(2-Aminoethylthio)-5-fluoro-1,2-benzisoxazole hydrochloride], the figure is 2.7 nM; as for `NCCOc1noc2ncccc12` [10(f), 3-(2-Aminoethoxy)pyrido[3,2-d]isoxazole Hydrochloride], 13.5 nM; as for `NCCOc1noc2ccc(F)cc12` [Example 5, 3-(2-Aminoethoxy)-5-fluoro-1,2-benzisoxazole hydrochloride], 1.35 nM. The compound `NCCOc1noc2cc(Cl)ccc12` [Example 11, 3-(2-Aminoethoxy)-6-chloro-1,2-benzisoxazole Hydrochloride] displayed an IC50 of 2.8 nM. Still for that read-out and setting: to `NCCOc1noc2ccc(Cl)cc12` [Example 1, 3-(2-Aminoethoxy)-5-chloro-1,2-benzisoxazole hydrochloride] belongs 0.37 nM; to `NCCOc1noc2ncccc12` [10(e), 3-(2-Aminoethoxy)pyrido[3,2-d]isoxazole Dihydrochloride], 10.2 nM. As to `Cc1ccc2onc(OCCN)c2c1` [Example 7, 3-(2-Aminoethoxy)-5-methyl-1,2-benzisoxazole Hydrochloride], the IC50 came to 0.56 nM. The compound `Cc1ccc2onc(SCCN)c2c1` [Example 34, 3-(2-Aminoethylthio)-5-methyl-1,2-benzisoxazole hydrochloride] came in with an IC50 of 2.2 nM. Same read-out and setting: as for `COC(=O)c1ccc2onc(OCCN)c2c1` [Example 42, 3-(2-Aminoethoxy)-5-methoxycarbonyl-1,2-benzisoxazole hydrochloride], the figure is 18 nM; as for `NCCOc1noc2ccc(OC(F)F)cc12` [Example 44, 3-(2-Aminoethoxy)-5-difluoromethoxy-1,2-benzisoxazole hydrochloride], 6 nM; as for `COc1ccc2onc(SCCN)c2c1` [Example 33, 3-(2-Aminoethylthio)-5-methoxy-1,2-benzisoxazole hydrochloride], 4.5 nM. As for `Cc1ccc2c(OCCN)noc2c1` [Example 14, 3-(2-Aminoethoxy)-6-methyl-1,2-benzisoxazole Hydrochloride], inhibition was half-maximal at 21.5 nM (IC50). Take `CSc1c(F)ccc2onc(OCCN)c12` [Example 21, 3-(2-Aminoethoxy)-5-fluoro-4-methylthio-1,2-benzisoxazole Hydrochloride]: the IC50 was determined as 4.7 nM.

Consider `Cc1cccc2c(OCCN)noc12` [Example 13, 3-(2-Aminoethoxy)-7-methyl-1,2-benzisoxazole Hydrochloride], for which the IC50 was 27.5 nM.

Compound `N#Cc1cccc2onc(OCCN)c12` [Example 24, 3-(2-Aminoethoxy)-4-cyano-1,2-benzisoxazole hydrochloride] showed a half-maximal inhibitory concentration (IC50) of 6.8 nM. Still for that read-out and setting: as for `COc1ccc2onc(OCCN)c2c1` [Example 6, 3-(2-Aminoethoxy)-5-methoxy-1,2-benzisoxazole hydrochloride], the figure is 5.6 nM; as for `Cc1cc(Cl)cc2c(SCCN)noc12` [Example 56, 3-(2-Aminoethylthio)-5-chloro-7-methyl-1,2-benzisoxazole hydrochloride], 6.6 nM; as for `NCCOc1noc2c(Cl)cc(Cl)cc12` [Example 12, 3-(2-Aminoethoxy)-5,7-dichloro-1,2-benzisoxazole Hydrochloride], 26.5 nM.

Still in this assay, the particulars now being: 14C-PEA 20 μM, pH 7.4, 38° C., reference compounds A and B.
In turn, `CNCCOc1noc2ccccc12` [Compound A, 3(2-N-Methylamino)ethoxy-1,2-benzisoxazole, reference compound] registered an IC50 of 2350 nM. The same measure, in the same setting: to `CN(C)CCOc1noc2ccccc12` [Compound B, 3(2-N,NDimethylamino)ethoxy-1,2-benzisoxazole] belongs 4700 nM.
